pIC50: −log10 of the molar value. Converted amounts (≈) assume the structure as drawn.
Legend:
Vero [1] = experiment: Inhibition of mammalian Vero cell viability at 6.25 and 62.5 ug/ml by MTT assay; type: functional, cell-based; details: Chlorocebus sabaeus
[2] = tested on: Mycobacterium tuberculosis; experiment: Antibacterial activity against Mycobacterium tuberculosis H37Rv; type: functional
Vero [3] = experiment: Selectivity index as ratio of IC50 over MIC; type: functional

Compound	pIC50 (Vero [1])	MIC [2]	Selectivity index (Vero [3])
C/C(=N/NC(=O)c1ccncc1)c1ccc(N/C(S)=N/c2ccc(Br)cc2)cc1	3.87	1.66 µM (≈ 0.778 µg/mL)	
NNC(=O)c1ccncc1 [ISONIAZID]	< 3.34	1.46 µM (≈ 0.2 µg/mL)	
C/C(=N/NC(=O)c1ccncc1)c1ccc(N/C(S)=N/c2ccc(F)cc2)cc1	< 3.81	0.49 µM (≈ 0.2 µg/mL)	>312
C/C(=N/NC(=O)c1ccncc1)c1ccc(N/C(S)=N/c2ccc(C)cc2)cc1	3.81	1.93 µM (≈ 0.779 µg/mL)	
CCOc1ccc(N/C(S)=N\c2ccc(/C(C)=N\NC(=O)c3ccncc3)cc2)cc1	3.84	0.89 µM (≈ 0.386 µg/mL)	
COc1ccc(N/C(S)=N\c2ccc(/C(C)=N\NC(=O)c3ccncc3)cc2)cc1	< 3.83	0.47 µM (≈ 0.197 µg/mL)	
C/C(=N/NC(=O)c1ccncc1)c1ccc(N/C(S)=N/c2ccccc2)cc1	3.79	4 µM (≈ 1.56 µg/mL)	
